Test results: article PMC10327353 (Breast Cancer Research : BCR, 2023)
Read-outs that look alike come from different tables or passages of the source.

What was measured:
[1] = DMPK modeling prediction of human half-life
[2] = tested on: 121 recombinant human kinases; test: Kinome selectivity profile, 121-kinase panel; type: biochemical; conditions: 1 µM DZD1516, Km ATP
Experimental: (§1) In vitro profiling of the 121-recombinant kinase panel was performed at Eurofins UK Ltd (Dundee, UK). In brief, recombinant kinases were incubated within an appropriate buffer containing peptide substrate and radiolabelled γ-^33P-ATP together with the presence or absence of the required compound concentration. The reaction was initiated by adding ATP/Mg^2+ mix. After incubation for 40 minutes at room temperature, the reaction was stopped by adding 3% phosphoric acid solution. A portion of the reaction mix was spotted onto P30 filtermat to trap peptide and washed three times for 5 minutes with phosphoric acid to remove non-specific γ-^33P-ATP. The substrate phosphorylation was then measured by scintillation counting, which determined the level of kinase activity inhibition compared to control reactions. Percentage inhibition data for each kinase was mapped to the kinome tree (www.kinhub.org).

c-RAF(h) = molecular target: T1, c-RAF(h) (Homo sapiens, UniProt P04049); test: Kinase panel assay (Eurofins); type: biochemical
T1 construct: purchased Eurofins UK Ltd (Dundee, UK)
T1 sequence (P04049 whole entry): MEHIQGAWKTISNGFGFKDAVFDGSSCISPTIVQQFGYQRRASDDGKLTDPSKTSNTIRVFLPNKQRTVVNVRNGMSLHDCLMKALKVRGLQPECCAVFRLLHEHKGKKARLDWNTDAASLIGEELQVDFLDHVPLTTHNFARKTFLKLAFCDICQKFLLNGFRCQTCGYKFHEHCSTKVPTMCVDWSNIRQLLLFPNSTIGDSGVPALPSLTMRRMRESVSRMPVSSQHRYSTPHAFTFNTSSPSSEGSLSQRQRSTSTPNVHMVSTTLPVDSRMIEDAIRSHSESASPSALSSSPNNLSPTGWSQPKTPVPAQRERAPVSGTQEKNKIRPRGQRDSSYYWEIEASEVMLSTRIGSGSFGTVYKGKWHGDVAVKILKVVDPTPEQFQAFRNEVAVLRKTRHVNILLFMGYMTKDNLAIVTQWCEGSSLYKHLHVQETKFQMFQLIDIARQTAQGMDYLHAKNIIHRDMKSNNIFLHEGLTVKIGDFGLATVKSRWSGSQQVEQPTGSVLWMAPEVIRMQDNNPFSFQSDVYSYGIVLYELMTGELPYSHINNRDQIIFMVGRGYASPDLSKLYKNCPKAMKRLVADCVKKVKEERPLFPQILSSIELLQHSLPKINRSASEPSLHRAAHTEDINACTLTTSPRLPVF
Experimental: as §1

EGFR(T790M,L858R)(h) = molecular target: T2, EGFR(T790M,L858R)(h) (Homo sapiens, UniProt P00533, L858R/T790M); test: Kinase panel assay (Eurofins); type: biochemical
T2 construct: purchased Eurofins UK Ltd (Dundee, UK)
T2 sequence (P00533 25-1210 T790M/L858R): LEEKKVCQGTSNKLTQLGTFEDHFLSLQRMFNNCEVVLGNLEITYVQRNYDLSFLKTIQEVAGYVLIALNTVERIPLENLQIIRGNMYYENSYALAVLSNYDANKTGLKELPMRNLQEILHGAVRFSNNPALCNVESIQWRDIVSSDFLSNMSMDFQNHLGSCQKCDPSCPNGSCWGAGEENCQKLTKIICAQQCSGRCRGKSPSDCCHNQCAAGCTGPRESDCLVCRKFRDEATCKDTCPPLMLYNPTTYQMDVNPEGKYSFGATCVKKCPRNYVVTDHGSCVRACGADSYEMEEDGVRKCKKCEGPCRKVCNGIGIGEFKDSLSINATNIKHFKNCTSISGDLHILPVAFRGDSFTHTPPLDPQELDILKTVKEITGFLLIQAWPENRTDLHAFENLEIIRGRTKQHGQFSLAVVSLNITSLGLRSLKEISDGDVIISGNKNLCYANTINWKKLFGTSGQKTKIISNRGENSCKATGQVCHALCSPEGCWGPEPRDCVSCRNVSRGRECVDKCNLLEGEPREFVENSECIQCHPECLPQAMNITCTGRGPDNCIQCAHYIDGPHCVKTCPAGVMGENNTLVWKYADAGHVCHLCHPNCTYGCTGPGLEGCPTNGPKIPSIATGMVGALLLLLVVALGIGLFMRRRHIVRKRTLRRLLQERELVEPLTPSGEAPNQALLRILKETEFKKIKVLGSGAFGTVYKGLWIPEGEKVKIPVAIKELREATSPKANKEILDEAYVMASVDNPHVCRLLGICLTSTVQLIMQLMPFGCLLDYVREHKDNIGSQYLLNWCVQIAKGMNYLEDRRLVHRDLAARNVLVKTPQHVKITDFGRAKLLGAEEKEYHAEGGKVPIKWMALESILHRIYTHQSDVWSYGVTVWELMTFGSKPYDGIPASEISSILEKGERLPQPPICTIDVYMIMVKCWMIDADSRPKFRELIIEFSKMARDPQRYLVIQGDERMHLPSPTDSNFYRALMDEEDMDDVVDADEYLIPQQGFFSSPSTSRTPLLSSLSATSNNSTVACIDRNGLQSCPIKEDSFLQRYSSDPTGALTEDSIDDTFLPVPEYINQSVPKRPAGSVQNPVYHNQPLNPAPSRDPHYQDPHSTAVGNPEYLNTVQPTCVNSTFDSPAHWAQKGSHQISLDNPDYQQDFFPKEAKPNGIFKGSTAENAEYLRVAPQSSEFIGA
Experimental: as §1

EGFR(h) = molecular target: T3, EGFR(h) (Homo sapiens, UniProt P00533); test: Kinase panel assay (Eurofins); type: biochemical
T3 construct: purchased Eurofins UK Ltd (Dundee, UK)
Experimental: as §1

HER2(h) = molecular target: T4, HER2(h) (Homo sapiens, UniProt P04626); test: Kinase panel assay (Eurofins); type: biochemical
T4 construct: purchased Eurofins UK Ltd (Dundee, UK)
Experimental: as §1

Lck(h) activated = molecular target: T5, Lck(h) activated (Homo sapiens, UniProt P06239); test: Kinase panel assay (Eurofins); type: biochemical
T5 construct: purchased Eurofins UK Ltd (Dundee, UK)
T5 sequence (P06239 whole entry): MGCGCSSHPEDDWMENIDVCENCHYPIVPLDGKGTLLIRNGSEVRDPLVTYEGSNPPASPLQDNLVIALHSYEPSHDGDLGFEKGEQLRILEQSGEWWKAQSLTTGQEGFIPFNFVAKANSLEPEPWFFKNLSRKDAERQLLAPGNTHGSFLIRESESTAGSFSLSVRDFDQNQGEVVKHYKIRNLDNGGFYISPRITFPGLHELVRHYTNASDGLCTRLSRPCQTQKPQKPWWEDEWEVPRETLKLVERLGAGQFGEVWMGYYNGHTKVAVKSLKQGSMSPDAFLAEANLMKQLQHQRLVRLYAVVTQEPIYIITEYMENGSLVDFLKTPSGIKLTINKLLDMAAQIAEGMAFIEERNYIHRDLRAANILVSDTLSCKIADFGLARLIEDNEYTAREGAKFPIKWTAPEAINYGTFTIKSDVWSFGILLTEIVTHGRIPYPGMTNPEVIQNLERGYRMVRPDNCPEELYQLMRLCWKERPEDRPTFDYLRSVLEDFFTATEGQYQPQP
Experimental: as §1

Lyn(h) = molecular target: T6, Lyn(h) (Homo sapiens, UniProt P07948); test: Kinase panel assay (Eurofins); type: biochemical
T6 construct: purchased Eurofins UK Ltd (Dundee, UK)
T6 sequence (P07948 whole entry): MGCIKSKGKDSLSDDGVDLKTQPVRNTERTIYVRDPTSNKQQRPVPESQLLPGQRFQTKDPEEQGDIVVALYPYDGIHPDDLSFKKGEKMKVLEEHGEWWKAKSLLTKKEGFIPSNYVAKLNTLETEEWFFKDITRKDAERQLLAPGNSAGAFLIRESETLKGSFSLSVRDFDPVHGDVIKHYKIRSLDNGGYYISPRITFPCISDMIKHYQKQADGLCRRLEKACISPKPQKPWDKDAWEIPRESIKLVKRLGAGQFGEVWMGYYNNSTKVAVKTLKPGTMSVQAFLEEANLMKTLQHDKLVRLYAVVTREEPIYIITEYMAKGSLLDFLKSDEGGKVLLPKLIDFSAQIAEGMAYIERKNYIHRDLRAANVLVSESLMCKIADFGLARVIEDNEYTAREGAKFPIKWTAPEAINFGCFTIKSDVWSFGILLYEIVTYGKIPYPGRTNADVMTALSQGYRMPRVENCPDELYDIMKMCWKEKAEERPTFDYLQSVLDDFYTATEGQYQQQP
Experimental: as §1

Lck(h) = molecular target: T7, Lck(h) (Homo sapiens, UniProt P06239); test: Kinase panel assay (Eurofins); type: biochemical
T7 construct: purchased Eurofins UK Ltd (Dundee, UK)
Experimental: as §1

TrkA(h) = molecular target: T8, TrkA(h) (Homo sapiens, UniProt P04629); test: Kinase panel assay (Eurofins); type: biochemical
T8 construct: purchased Eurofins UK Ltd (Dundee, UK)
T8 sequence (P04629 33-796): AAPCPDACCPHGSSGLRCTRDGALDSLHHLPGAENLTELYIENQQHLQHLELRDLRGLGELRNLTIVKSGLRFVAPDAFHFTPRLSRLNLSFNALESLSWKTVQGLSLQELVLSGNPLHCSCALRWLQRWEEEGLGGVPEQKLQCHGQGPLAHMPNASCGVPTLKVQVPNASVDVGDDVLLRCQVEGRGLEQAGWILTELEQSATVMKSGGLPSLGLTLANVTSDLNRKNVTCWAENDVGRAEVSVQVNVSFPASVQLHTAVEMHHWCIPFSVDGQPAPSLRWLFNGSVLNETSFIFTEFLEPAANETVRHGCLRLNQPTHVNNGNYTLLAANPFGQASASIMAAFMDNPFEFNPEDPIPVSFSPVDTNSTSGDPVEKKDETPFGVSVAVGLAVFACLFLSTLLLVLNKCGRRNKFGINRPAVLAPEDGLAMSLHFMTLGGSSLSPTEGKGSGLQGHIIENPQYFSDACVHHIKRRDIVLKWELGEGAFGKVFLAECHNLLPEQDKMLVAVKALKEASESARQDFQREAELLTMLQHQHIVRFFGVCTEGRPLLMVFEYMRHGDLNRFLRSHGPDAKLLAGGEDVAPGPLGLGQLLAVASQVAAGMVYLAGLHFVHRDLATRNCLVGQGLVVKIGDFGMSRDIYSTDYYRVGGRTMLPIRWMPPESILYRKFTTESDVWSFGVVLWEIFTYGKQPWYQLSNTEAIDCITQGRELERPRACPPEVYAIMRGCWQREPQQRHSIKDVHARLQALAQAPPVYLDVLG
Experimental: as §1

ErbB4(h) = molecular target: T9, ErbB4(h) (Homo sapiens, UniProt Q15303); test: Kinase panel assay (Eurofins); type: biochemical
T9 construct: purchased Eurofins UK Ltd (Dundee, UK)
Experimental: as §1

Met(h) = molecular target: T10, Met(h) (Homo sapiens, UniProt P08581); test: Kinase panel assay (Eurofins); type: biochemical
T10 construct: purchased Eurofins UK Ltd (Dundee, UK)
Experimental: as §1

Fms(h) = molecular target: T11, Fms(h) (Homo sapiens, UniProt P07333); test: Kinase panel assay (Eurofins); type: biochemical
T11 construct: purchased Eurofins UK Ltd (Dundee, UK)
T11 sequence (P07333 20-972): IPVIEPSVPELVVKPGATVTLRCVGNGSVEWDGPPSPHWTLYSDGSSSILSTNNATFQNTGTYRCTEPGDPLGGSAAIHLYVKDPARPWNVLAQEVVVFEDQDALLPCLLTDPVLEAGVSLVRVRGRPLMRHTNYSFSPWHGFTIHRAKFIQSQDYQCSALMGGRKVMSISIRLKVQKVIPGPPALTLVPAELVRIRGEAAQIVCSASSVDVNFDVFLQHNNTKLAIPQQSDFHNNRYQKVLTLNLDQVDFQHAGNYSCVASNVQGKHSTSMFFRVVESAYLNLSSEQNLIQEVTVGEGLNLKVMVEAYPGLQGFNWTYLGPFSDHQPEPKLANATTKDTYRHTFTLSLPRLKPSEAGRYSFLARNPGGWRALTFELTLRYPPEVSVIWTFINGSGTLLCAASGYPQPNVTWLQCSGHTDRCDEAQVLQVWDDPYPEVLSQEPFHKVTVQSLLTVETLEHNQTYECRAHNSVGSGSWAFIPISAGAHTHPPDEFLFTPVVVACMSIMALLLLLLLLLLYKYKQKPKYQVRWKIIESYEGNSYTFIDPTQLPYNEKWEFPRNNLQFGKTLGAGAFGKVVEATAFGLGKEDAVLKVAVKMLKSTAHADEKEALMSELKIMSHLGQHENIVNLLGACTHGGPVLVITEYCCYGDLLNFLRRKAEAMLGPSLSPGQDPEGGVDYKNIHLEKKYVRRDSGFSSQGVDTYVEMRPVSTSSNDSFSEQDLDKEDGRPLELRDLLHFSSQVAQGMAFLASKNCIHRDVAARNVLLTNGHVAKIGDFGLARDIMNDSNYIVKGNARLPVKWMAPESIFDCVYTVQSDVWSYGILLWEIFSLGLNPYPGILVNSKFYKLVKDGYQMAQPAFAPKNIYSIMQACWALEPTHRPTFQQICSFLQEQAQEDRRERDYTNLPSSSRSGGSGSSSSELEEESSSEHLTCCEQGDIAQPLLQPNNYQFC
Experimental: as §1

Blk(h) = molecular target: T12, Blk(h) (Homo sapiens, UniProt P51451); test: Kinase panel assay (Eurofins); type: biochemical
T12 construct: purchased Eurofins UK Ltd (Dundee, UK)
T12 sequence (P51451 whole entry): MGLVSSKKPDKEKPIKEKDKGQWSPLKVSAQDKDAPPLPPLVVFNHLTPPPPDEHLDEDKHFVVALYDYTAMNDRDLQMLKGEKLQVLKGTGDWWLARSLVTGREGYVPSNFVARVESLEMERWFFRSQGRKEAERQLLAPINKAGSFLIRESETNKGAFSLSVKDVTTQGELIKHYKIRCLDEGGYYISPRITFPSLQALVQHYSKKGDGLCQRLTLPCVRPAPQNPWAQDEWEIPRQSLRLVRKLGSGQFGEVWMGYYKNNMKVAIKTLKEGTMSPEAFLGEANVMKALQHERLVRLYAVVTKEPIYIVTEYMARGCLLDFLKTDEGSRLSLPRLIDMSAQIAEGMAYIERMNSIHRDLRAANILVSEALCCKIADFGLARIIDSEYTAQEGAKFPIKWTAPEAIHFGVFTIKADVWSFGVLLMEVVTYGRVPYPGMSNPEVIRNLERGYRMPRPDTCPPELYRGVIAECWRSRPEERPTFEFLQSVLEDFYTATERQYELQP
Experimental: as §1

A431 cells = test: Cell proliferation assay (CellTiter-Glo), A431; type: cell-based; conditions: Homo sapiens, A-431; A431, 72 hrs
Experimental: BT474C1-Luci Mono1 cells were seeded in 384-well plates at 1500 cells/well in DMEM medium containing 10% FBS and 1 mM Oxaloacetic acid (OAA). A431 cells were seeded in 384-well plates at 1,000 cells/well in DMEM medium containing 10% FBS. After overnight incubation, cells were treated with compounds at various concentrations for 3 days. Then cell viability was measured using a CellTiter-Glo Luminescent Cell Viability Assay from Promega Corp. according to the manufacturer's instructions.

[3] = tested on: BT474C1-Luci Mono1 SC xenograft; test: SC (subcutaneous) BT474C1-Luci Mono1 xenograft model; type: in vivo, nude mice
Experimental: Tumor cell suspension at 5 × 10^6 were injected subcutaneously in a total volume of 0.2 ml (1:1 with ECM Gel) into each mouse. 17β-ESTRADIOL (90-day release, 0.36 mg/pellet) were implanted 24 hrs before cells were injected subcutaneously. Tumor nodules were measured in two dimensions with caliper and the tumor volume was calculated using the following formula: tumor volume = (length × width^2) × 0.5. Tumor-bearing mice were randomized into different treatment groups when the mean tumor volume reached around 150 mm^3.

[4] = Phase 1 study: CSF penetration (Kp,uu,CSF); type: in vivo, human; conditions: for Kp uu: human, oral
Experimental: Blood samples for PK analyses of DZD1516 and DZ2678 were collected on C0D1. Samples were obtained at pre-dose and at 0.5, 1, 1.5, 2, 2.5, 3, 4, 6, 8, 10, 24, 48, and 72 h after the dose, while for C1D15, samples were obtained at pre-dose and 0.5, 1, 1.5, 2, 2.5, 3, 4, 6, 8, and 10 h after the dose. CSF samples for PK analyses of DZD1516 and its metabolite DZ2678 were collected from patients with BM (C1D15) and LM (C1D15 and C3D1) at steady state (Additional file 1). Plasma and CSF samples were analyzed by LabCorp Madison laboratory (Madison, WI, USA) and LabCorp Shanghai laboratory (Shanghai, China) using a validated LC/MS/MS bioanalytical method to determine DZD1516 and DZ2678 concentrations. Non-compartmental PK analysis was performed using Phoenix WinNonlin (Certara USA Inc., version 8.3.3.33).

COc1cc(O[C@H]2CCN(C)CC2(F)F)c2c(Nc3ccc(Oc4ccn5ncnc5c4)c(C)c3)ncnc2c1 [DZD1516]
predicted human half-life [1]: about 8 h
number of kinases inhibited > 50% [2]: 12
IC50 (c-RAF(h)): 1.04 µM
IC50 (EGFR(T790M,L858R)(h)): 0.244 µM
IC50 (EGFR(h)): 0.092 µM
IC50 (HER2(h)): 0.016 µM
IC50 (Lck(h) activated): 0.18 µM
IC50 (Lyn(h)): 2.3 µM
IC50 (Lck(h)): 0.433 µM
IC50 (TrkA(h)): 1.29 µM
IC50 (ErbB4(h)): 0.052 µM
IC50 (Met(h)): 1.09 µM
IC50 (Fms(h)): 1.07 µM
IC50 (Blk(h)): 2.67 µM
GI50 (A431 cells): 8.87 µM
antitumor efficacy ([3]; 100 mg/kg or 150 mg/kg twice daily): tumor remission was achieved
antitumor efficacy ([3]; monotherapy 50 mg/kg (data not shown)): tumor shrinkage or complete tumor remission
CSF conc ([4]; 50 mg, subject 1): 4.89 nmol/L
Free plasma conc ([4]; 50 mg, subject 1): 5.35 nM
CSF conc ([4]; 50 mg, subject 2): 10.2 nmol/L
Free plasma conc ([4]; 50 mg, subject 2): 6.28 nM
CSF conc ([4]; 100 mg, subject 3): 39.3 nmol/L
Free plasma conc ([4]; 100 mg, subject 3): 13.4 nM
CSF conc ([4]; 100 mg, subject 4): 15.5 nmol/L
Free plasma conc ([4]; 100 mg, subject 4): 4.95 nM
CSF conc ([4]; 100 mg, subject 5): 12.7 nmol/L
Free plasma conc ([4]; 100 mg, subject 5): 4.84 nM
CSF conc ([4]; 200 mg, subject 6): 18.3 nmol/L
Free plasma conc ([4]; 200 mg, subject 6): 13.9 nM
CSF conc ([4]; 250 mg, subject 7): 27.9 nmol/L
Free plasma conc ([4]; 250 mg, subject 7): 24.0 nM
CSF conc ([4]; 250 mg, subject 8): 54.2 nmol/L
Free plasma conc ([4]; 250 mg, subject 8): 17.4 nM
Kp uu ([4]; CSF (relative to unbound plasma), patients with CNS metastases, read-out: mean Kp,uu,CSF): 2.1
Kp uu ([4]; CSF / free plasma, 100 mg, subject 4, read-out: Kp,uu,CSF): 3.13
Kp uu ([4]; CSF / free plasma, 100 mg, subject 5, read-out: Kp,uu,CSF): 2.63
Kp uu ([4]; CSF / free plasma, 200 mg, subject 6, read-out: Kp,uu,CSF): 1.31
Kp uu ([4]; CSF / free plasma, 250 mg, subject 7, read-out: Kp,uu,CSF): 1.16
Kp uu ([4]; CSF to free plasma, 50 mg, subject 1, read-out: Kp,uu,CSF): 0.915
Kp uu ([4]; CSF to free plasma, 50 mg, subject 2, read-out: Kp,uu,CSF): 1.62
Kp uu ([4]; CSF to free plasma, 100 mg, subject 3, read-out: Kp,uu,CSF): 2.94
Kp uu ([4]; CSF to free plasma, 250 mg, subject 8, read-out: Kp,uu,CSF): 3.13
